Reference: US12083196B2, “Personal cleansing compositions with surfactants for increased foam performance” (ECOLAB USA INC., priority 2020, dated 2024)

Experiments:
[1] = SITA Foam Analyzer foam creation; assay type: physicochemical; conditions: single surfactant, 1%, FIG. 1
From the text: The reagents used below include: • Alpha-Step® PC-48 is a C10-16 sodium methyl 2-sulfolaurate and disodium 2-sulfolaurate available from Stepan; • Stepan-Mild® L3 is a predominantly C12 reaction product of lauryl alcohol and lactic acid available from Stepan; • SLES is sodium laureth sulfate; • Cola® Teric is an amphoteric sultaine available from Colonial Chemical, Inc.; • Glucopon® […] is an alkyl polyglycoside available from BASF Corporation; • Suga® Nate is a sodium laurylglucosides hydrooxypropylsulfonate available from Colonial Chemicals, Inc; • Lathanol® LAL is a sodium lauryl sulfoacetate available from Stepan. All experiments ran through the SITA Foam Analyzer were as follows: Equipment: • 1) Foaming Apparatus • 2) SITA Software Reagents: • 1) 250 mL of each solution • 2) DI water Preparation: Equipment is prepared by turning the water bath on with ample time to warm up before running tests. Adjust water bath to desired temperature. Quality Assurance: Run a positive and negative control for every experiment. Ensure equipment is clean and free from any residual surfactant chemistry beforehand. In each experiment set, proper differentiation between chemistries can be seen if at least one of the tested chemistries has an “S” curve that depicts a change in the initial foam building and the lathering step. Experimental Procedure: • 1) Prepare water bath • 2) Open the “SITA-foam” software on the computer. […] Foam Generation • i. Series Count (cycles): number of measurement replicates (3-triplicate) • ii. Fill With: Volume of sample liquid (250 mL for each test) • iii. Stir Count: Number of stirrings for each test (70). This is also the number of measurements for each cycle. • iv. Stir Time: Stirring duration of sample (10 sec) • v. Revolution: RPM o the stirrer (900 RMP) • b. Cleansing • i. Click the shower icon to activate the automatic cleansing and rinsing function. The vessel will be cleaned automatically after each cycle of measurements. • ii. Normal cleansing will rinse out the vessel many times. Small cleansing indicates a faster cleansing process. All above parameters can be saved • 5) After setting the parameters, click on “Start Measurement” which is the green “Play” button to proceed with the experiment • 6) After each cycle of experiments automatic cleansing and rinsing is done in preparation for the next cycle of measurements as long as the instrument is connected to tap water or a cleansing liquid reservoir • 7) Each click on the green “Start Measurement” icon opens a new window. The current sample measurement results are all in the same project folder. To rename sample measurement files, right click on the open sample window, and click “save” to rename your sample file • 8) If an error occurs at any point with your sample, the measurement reading can be stopped by clicking the red square “Stop icon” or by pressing the large red button on the machine • 9) Organize the graph generated with the icons in the fourth section of the tool bar: create new plot, add/remove data from plot, change axis properties, and view properties. Click on the “Create new plot” icon to view the plot after the experiment is done or if it is still running. Right click to rename the plot, insert or remove the plot and display the foam buildup, foam decay, or both Establishing initial foaming of the single surfactants is important to establish baselines for comparison for the combinations of various surfactants. To establish the foaming properties of single surfactants, a high amount of each surfactant was analyzed in the SITA Foam Analyzer as described above. The final concentration of each surfactant in solution was 1%. The surfactants tested were sodium lauryl sulfate (SLES), a betaine, Cola® Teric CBS, Glucopon® […], Lathanol® LAL, and Suga® Nate 160NC. […] The compositions were tested for foaming using the SITA Foam Analyzer as described above. […]

[2] = test system: Candida albicans (ATCC 10231), Saccharomyces cerevisiae (ATCC 834), Aspergillus niger (ATCC 16404); assay: Preservative test, yeast and mold inoculum; assay type: cell-based; conditions: Lathanol LAL in preserved compositions
Experimental: (§1) The 7 different compositions in Table 4 were tested for their preservative ability, with composition 11 being a negative control as it lacks either phenoxyethanol or benzoic acid. To test the compositions, a bacterial inoculum and a yeast and mold inoculum were created. The bacterial inoculum comprised of equal parts of Staphylococcus aureus (ATCC 6538), Escherichia coli (ATCC 11229), Enterobacter aerogenes (ATCC 13048), Burkholderia cepacian (ATCC 25416), and Pseudomonas aeruginosa (ATCC 15442). The yeast and mold inoculum comprised of equal parts of Candida albicans (ATCC 10231), Saccharomyces cerevisiae (ATCC 834), and Aspergillus niger (ATCC 16404).
(§2) The inoculates were incubated for 3 days with the bacterial inoculum at 32° C. and the yeast and mold inoculum at 26° C. The preservative compositions were added, and samples measured at 7, 14, 21, and 28 days. A sample passed if no bacteria or yeast and mod survived after Day 7, conditionally passed if there was a greater than 2.0 log reduction on day 7 when compared to day 3, with no additional growth on days 14, 21, or 28 for the bacterial samples, and if there was not more than a 0.5 log increase from the initial inoculated count at days 14 and 28 for the yeast and mold samples. The results are summarized in Table 5 for bacterial samples and Table 6 for yeast and mold.

[3] = test system: Staphylococcus aureus (ATCC 6538), Escherichia coli (ATCC 11229), Enterobacter aerogenes (ATCC 13048), Burkholderia cepacian (ATCC 25416), Pseudomonas …; assay: Preservative test, bacterial inoculum; assay type: cell-based; conditions: Lathanol LAL in preserved compositions
Experimental: as §1, §2

Compound	onset of foam saturation (in words) [1]	interference with antifungal or antimold capabilities (in words) [2]	interference with preservatives, bacteria (in words) [3]
C[N+](C)(C)CC(=O)O [betaine]	reached saturation at earlier cycles/readings		
CCCCCCCCCCCCOC(=O)CS(=O)(=O)O.[Na] [Lathanol® LAL, sodium lauryl sulfoacetate]	performing more slowly	does not interfere with the antifungal or antimold capabilities	does not interfere with the addition of preservatives
sodium laurylglucosides hydrooxypropylsulfonate [Suga® Nate 160NC]	performing more slowly		
